Laboratory results taken from patent US9474780B2, “GIP and GLP-1 co-agonist compounds” (Eli Lilly and Company, priority 2015, dated 2016).
Numbered stars: 1 amine (or outer) side, 2 acyl side, 3 side chain; on linkers, the order of the positions; unused ones are H or OH. Square brackets hold non-standard residues; d marks the D form. Side chains are listed from the residue outwards. Peptide text beside a SMILES is read from it. * marks the point of attachment. C20 diacid = O=C(O)CCCCCCCCCCCCCCCCCCC(=O)*; γGlu = O=C(O)[C@H](CCC(=O)[*:2])N[*:1]; 1Nal = N[C@@H](Cc1cccc2ccccc12)C(=O)O; AEEA = NCCOCCOCC(=O)O; Aib = CC(C)(N)C(=O)O

Experiments:
[1] = Weight loss, body composition and hepatic steatosis in DIO mice; format: in vivo, mouse; settings: for Blood Glucose: Day 15
Protocol: The effects on weight loss, body composition and hepatic steatosis in DIO mice for compounds of the present invention are evaluated in C57/BL6 DIO mice. […] Animals are individually housed in a temperature-controlled (24° C.) facility with a 12 hour light/dark cycle (lights on 22:00), and free access to food and water. […] Daily body weight and food intake are measured throughout the study. Absolute changes in body weight are calculated by subtracting the body weight of the same animal prior to the first injection of compound. […] On Day 15, blood glucose is measured with Accu-Chek glucometer (Roche) from tail vein blood and then animals may be sacrificed and livers removed and frozen. Liver triglycerides, determined from homogenates of livers collected at sacrifice, and plasma cholesterol are measured on a Hitachi Modular P clinical analyzer. Statistical comparisons between groups are done using one-way ANOVA followed by Dunnett's multiple comparison test. The ED50 for weight loss lowering is determined in GraphPad Prism using the non-linear fit tool.

human GIP-R = target: T1, human GIP-R (Homo sapiens, UniProt P48546); assay: Functional hGIP-R cAMP assay in HEK-293 clonal cells; settings: HEK293, read-out: Human GIP-R Emax
T1 sequence (P48546 22-466): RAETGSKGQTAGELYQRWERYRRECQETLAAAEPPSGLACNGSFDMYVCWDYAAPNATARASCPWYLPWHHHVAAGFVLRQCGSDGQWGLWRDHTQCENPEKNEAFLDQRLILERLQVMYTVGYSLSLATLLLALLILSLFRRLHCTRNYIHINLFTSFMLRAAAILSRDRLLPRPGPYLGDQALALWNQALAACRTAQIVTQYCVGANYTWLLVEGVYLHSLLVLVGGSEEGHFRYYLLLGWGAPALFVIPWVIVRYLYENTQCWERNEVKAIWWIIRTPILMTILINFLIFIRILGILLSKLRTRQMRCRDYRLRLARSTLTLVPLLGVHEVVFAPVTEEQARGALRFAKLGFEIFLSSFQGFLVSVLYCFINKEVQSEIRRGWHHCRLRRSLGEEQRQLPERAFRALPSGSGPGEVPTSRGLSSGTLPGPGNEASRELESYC
Protocol: (§1) After an incubation of 60 minutes at room temperature, the resulting increase in intracellular cAMP is quantitatively determined using the CisBio cAMP Dynamic 2 HTRF Assay Kit (Bedford, Mass.). Briefly, cAMP levels within the cell are detected by adding the cAMP-d2 conjugate in cell lysis buffer (20 μl) followed by the antibody anti-cAMP-Eu^3+-Cryptate, also in cell lysis buffer (20 μl). The resulting competitive assay is incubated for at least 60 minutes at room temperature, then detected using a PerkinElmer Envision® instrument with excitation at 320 nm and emission at 665 nm and 620 nm Envision units (emission at 665 nm/620 nm*10,000) are inversely proportional to the amount of cAMP present and are converted to nM cAMP per well using a cAMP standard curve. […] A relative EC50 value and percent top (Emax) is derived by non-linear regression analysis using the percent maximal response versus the concentration of the compound of the present invention, fitted to a four-parameter logistic equation.

[2] = Rat in vivo insulin secretion following intravenous glucose (IVGTT); settings: s.c. 16 hour prior to glucose
Protocol: Male Wistar rats (Harlan Labs, Indianapolis, Ind.) are randomized by body weight and dosed 1.5 ml/kg s.c. 16 hour prior to glucose administration and then fasted. Doses are vehicle, 0.1, 0.3, 1, 3 and 10 nmol/kg. Animals are weighed, and then anesthetized with sodium pentobarbital (Nembutal Sodium solution; Ovation Pharmaceuticals) dosed i.p. (65 mg/kg, 30 mg/ml). A time zero blood sample is collected into EDTA tubes after which glucose is administered ([…], 5 ml/kg). Blood samples are collected at 2, 4, 6, 10, 20, and 30 minutes post glucose. Plasma glucose levels are determined using a Hitachi analyzer (Roche) and plasma insulin is measured by the MSD insulin assay (Meso Scale, Gaithersburg, Md.).

Human GCGR = Human GCGR (Homo sapiens, UniProt P47871); assay: Functional hGCGR cAMP assay in HEK-293 clonal cells
Human GCGR, sequence (P47871 26-477): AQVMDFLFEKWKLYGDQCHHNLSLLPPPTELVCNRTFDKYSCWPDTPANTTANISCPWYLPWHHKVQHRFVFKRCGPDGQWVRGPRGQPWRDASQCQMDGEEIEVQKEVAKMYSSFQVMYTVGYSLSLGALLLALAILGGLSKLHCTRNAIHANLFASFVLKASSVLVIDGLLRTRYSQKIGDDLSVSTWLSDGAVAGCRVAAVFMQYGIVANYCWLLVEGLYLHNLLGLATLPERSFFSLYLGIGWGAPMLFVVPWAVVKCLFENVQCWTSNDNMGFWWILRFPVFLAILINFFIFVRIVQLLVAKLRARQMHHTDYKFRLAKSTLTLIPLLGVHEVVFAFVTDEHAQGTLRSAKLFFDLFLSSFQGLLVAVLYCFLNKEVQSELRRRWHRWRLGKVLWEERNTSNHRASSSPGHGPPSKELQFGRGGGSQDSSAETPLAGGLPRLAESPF

human GLP-1R [3] = target: T2, human GLP-1R (Homo sapiens, UniProt P43220); assay: Functional hGLP-1R cAMP assay in HEK-293 clonal cells; format: cell-based; settings: HEK293; percent of maximal response of hGLP-1(7-36)NH2
T2 construct: expressed in transfected cells; host or cells: 293HEK, Hygromycin-selected; crude plasma membranes
T2 sequence (P43220 24-463): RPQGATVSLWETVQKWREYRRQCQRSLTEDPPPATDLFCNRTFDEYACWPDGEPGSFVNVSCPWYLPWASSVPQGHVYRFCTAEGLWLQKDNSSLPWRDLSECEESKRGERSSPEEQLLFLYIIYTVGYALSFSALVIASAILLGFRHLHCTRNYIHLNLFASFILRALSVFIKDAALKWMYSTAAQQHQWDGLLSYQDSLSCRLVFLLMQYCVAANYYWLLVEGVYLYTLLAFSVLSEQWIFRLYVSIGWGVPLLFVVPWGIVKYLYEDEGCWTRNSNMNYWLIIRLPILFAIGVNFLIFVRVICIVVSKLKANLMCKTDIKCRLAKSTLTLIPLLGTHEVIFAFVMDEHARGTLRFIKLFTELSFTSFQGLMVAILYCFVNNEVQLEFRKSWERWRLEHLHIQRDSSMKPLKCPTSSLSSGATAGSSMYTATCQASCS
Protocol: as §1

[4] = Pharmacokinetics in cynomolgus monkeys; format: in vivo; settings: cynomolgus monkey, plasma, single SC 0.2 mg/kg, male monkeys, n = 2
Protocol: The compounds are administered by a single intravenous or subcutaneous dose (0.2 mg/kg) in 20 mM citrate buffer (pH 7.0) at a volume of 0.21 ml/kg. Blood is collected from each animal at 2, 4, 8, 12, 24, 48, 72, 96, 120, 144, 168, 204, 240, and 312 hours post-dosage. The plasma concentrations of compounds of the present invention are determined by a LC/MS method. Briefly, a compound of the present invention is extracted from 100% Monkey plasma sample (50 μl) diluted with 1×PBS (150 μl) and mixed with N-butanol (400 μl). Three distinct liquid layers are formed with the compound located in the top layer. A volume of 200 μl is transferred to a v-bottom 96-well plate, dried down using heated Nitrogen gas and reconstituted with 100 μl of 30% acetonitrile/0.1% formic acid. 20 μl of the reconstituted sample is injected onto a Supelco Analytical Discovery bio wide C5 3 μm column. The column effluent is directed into a Thermo Q-Exactive mass spectrometer for detection and quantitation.

human GLP-1R [5] = target: T2, human GLP-1R; format: binding

CC[C@H](C)[C@H](NC(=O)[C@H](CC(C)C)NC(=O)[C@H](Cc1c[nH]c2ccccc12)NC(=O)[C@H](CCC(N)=O)NC(=O)[C@@H](NC(=O)[C@H](Cc1ccccc1)NC(=O)[C@H](C)NC(=O)[C@H](CCCCNC(=O)COCCOCCNC(=O)COCCOCCNC(=O)CC[C@H](NC(=O)CC[C@H](NC(=O)CCCCCCCCCCCCCCCCCCC(=O)O)C(=O)O)C(=O)O)NC(=O)[C@H](CCC(N)=O)NC(=O)[C@H](C)NC(=O)[C@@H](NC(=O)[C@H](CCCCN)NC(=O)[C@H](CC(=O)O)NC(=O)[C@H](CC(C)C)NC(=O)C(C)(C)NC(=O)[C@@H](NC(=O)[C@H](CO)NC(=O)[C@H](Cc1ccc(O)cc1)NC(=O)[C@H](CC(=O)O)NC(=O)[C@H](CO)NC(=O)[C@@H](NC(=O)[C@H](Cc1ccccc1)NC(=O)[C@@H](NC(=O)CNC(=O)[C@H](CCC(=O)O)NC(=O)C(C)(C)NC(=O)[C@@H](N)Cc1ccc(O)cc1)[C@@H](C)O)[C@@H](C)O)[C@@H](C)CC)[C@@H](C)CC)C(C)C)C(=O)N[C@@H](C)C(=O)NCC(=O)NCC(=O)N1CCC[C@H]1C(=O)N[C@@H](CO)C(=O)N[C@@H](CO)C(=O)NCC(=O)N[C@@H](C)C(=O)N1CCC[C@H]1C(=O)N1CCC[C@H]1C(=O)N1CCC[C@H]1C(=O)N[C@@H](CO)C(N)=O [Example 5]
% Change from starting body weight ([1]; Table 9, 10 nmol/kg): −23.42 ± 1.43 %
% Change from starting fat mass ([1]; Table 9, 10 nmol/kg): −51.28 ± 1.89 %
% Change from starting body weight ([1]; Table 9, 30 nmol/kg): −26.84 ± 3.14 %
% Change from starting fat mass ([1]; Table 9, 30 nmol/kg): −62.77 ± 5.49 %
% Change from starting body weight ([1]; Table 9, 100 nmol/kg): −37.86 ± 2.25 %
% Change from starting fat mass ([1]; Table 9, 100 nmol/kg): −81.08 ± 1.68 %
Liver Triglycerides ([1]; Table 12, 10 nmol/kg): 48.30 ± 8.14 mg/g tissue
Plasma Cholesterol ([1]; Table 12, 10 nmol/kg): 126.6 ± 9.67 mg/dL
Blood Glucose ([1]; Table 12, 10 nmol/kg): 111.00 ± 6.56 mg/dL
Liver Triglycerides ([1]; Table 12, 30 nmol/kg): 39.60 ± 4.71 mg/g tissue
Plasma Cholesterol ([1]; Table 12, 30 nmol/kg): 108.2 ± 13.84 mg/dL
Blood Glucose ([1]; Table 12, 30 nmol/kg): 104.5 ± 5.30 mg/dL
Liver Triglycerides ([1]; Table 12, 100 nmol/kg): 67.96 ± 13.53 mg/g tissue
Plasma Cholesterol ([1]; Table 12, 100 nmol/kg): 108.6 ± 4.83 mg/dL
Blood Glucose ([1]; Table 12, 100 nmol/kg): 105.3 ± 6.16 mg/dL
Emax (human GIP-R): 105 ± 2%
% max increase of insulin AUC [2]: 349 +/− 39%
ED50 for insulin, rat IVGTT [2]: 1.02 nmol/kg
EC50 (Human GCGR): > 1000 nM
Emax (human GLP-1R [3]): 105 ± 4%

CC[C@H](C)[C@H](NC(=O)[C@H](CC(C)C)NC(=O)[C@H](Cc1c[nH]c2ccccc12)NC(=O)[C@H](CCC(N)=O)NC(=O)[C@@H](NC(=O)[C@H](Cc1cccc2ccccc12)NC(=O)[C@H](C)NC(=O)[C@H](CCCCNC(=O)COCCOCCNC(=O)COCCOCCNC(=O)CC[C@H](NC(=O)CCCCCCCCCCCCCCCCCCC(=O)O)C(=O)O)NC(=O)[C@H](CCC(N)=O)NC(=O)[C@H](C)NC(=O)[C@@H](NC(=O)[C@H](CCCCN)NC(=O)[C@H](CC(=O)O)NC(=O)[C@H](CC(C)C)NC(=O)C(C)(C)NC(=O)[C@@H](NC(=O)[C@H](CO)NC(=O)[C@H](Cc1ccc(O)cc1)NC(=O)[C@H](CC(=O)O)NC(=O)[C@H](CO)NC(=O)[C@@H](NC(=O)[C@H](Cc1ccccc1)NC(=O)[C@@H](NC(=O)CNC(=O)[C@H](CCC(=O)O)NC(=O)C(C)(C)NC(=O)[C@@H](N)Cc1ccc(O)cc1)[C@@H](C)O)[C@@H](C)O)[C@@H](C)CC)[C@@H](C)CC)C(C)C)C(=O)N[C@@H](C)C(=O)NCC(=O)NCC(=O)N1CCC[C@H]1C(=O)N[C@@H](CO)C(=O)N[C@@H](CO)C(=O)NCC(=O)N[C@@H](C)C(=O)N1CCC[C@H]1C(=O)N1CCC[C@H]1C(=O)N1CCC[C@H]1C(=O)N[C@@H](CO)C(N)=O [Example 8] (H-Y[Aib]EGTFTSDYSI[Aib]LDKIAQK([AEEA-AEEA-γGlu-C20 diacid])A[1Nal]VQWLIAGGPSSGAPPPS-NH2)
% Change from starting body weight ([1]; Table 10, 10 nmol/kg): −17.13 ± 0.81 %
% Change from starting fat mass ([1]; Table 10, 10 nmol/kg): −34.20 ± 1.62 %
% Change from starting body weight ([1]; Table 10, 30 nmol/kg): −25.27 ± 0.70 %
% Change from starting fat mass ([1]; Table 10, 30 nmol/kg): −54.24 ± 2.35 %
% Change from starting body weight ([1]; Table 10, 100 nmol/kg): −29.91 ± 2.03 %
% Change from starting fat mass ([1]; Table 10, 100 nmol/kg): −65.23 ± 6.69 %
Plasma Cholesterol ([1]; Table 13, 10 nmol/kg): 158.8 ± 7.57 mg/dL
Blood Glucose ([1]; Table 13, 10 nmol/kg): 114.7 ± 4.61 mg/dL
Plasma Cholesterol ([1]; Table 13, 30 nmol/kg): 139.4 ± 6.83 mg/dL
Blood Glucose ([1]; Table 13, 30 nmol/kg): 117.1 ± 8.26 mg/dL
Plasma Cholesterol ([1]; Table 13, 100 nmol/kg): 127.8 ± 6.34 mg/dL
Blood Glucose ([1]; Table 13, 100 nmol/kg): 125.4 ± 6.30 mg/dL
CL/F [4]: 4.7 mL/h/kg
Cmax [4]: 1000 ng/mL
AUC(0-inf) ([4]; read-out: Mean AUC0-inf): 42800 ng·h/mL
half-life ([4]; read-out: Mean T1/2 (converted)): 23 h
Tmax ([4]; read-out: Mean Tmax): 10 h
Molar ratio of hGLP-1R/hGIP-R (human GLP-1R [5]; normalized by factor 4.53 from native GIP and GLP-1 binding): 0.99
Absolute ratio of hGLP-1R/hGIP-R (human GLP-1R [5]; ratio of Ki values): 4.5
Emax (human GIP-R): 108 ± 4%
% max increase of insulin AUC [2]: 324 +/− 30%
ED50 for insulin, rat IVGTT [2]: 6.13 nmol/kg
EC50 (Human GCGR): > 1000 nM
Emax (human GLP-1R [3]): 88.4 ± 2.3%
